Results taken from paper PMC3633088 (Chemistry & biology, 2013).

How the values were obtained:
[1] = molecular target: T1, hASNase3, cleaved (active) form, alpha and beta chains (Homo sapiens, UniProt Q7L266); assay: asparaginase activity assay; assay type: biochemical; details: up to 50 mM; cleaved enzyme
T1 sequence (Q7L266 1-167): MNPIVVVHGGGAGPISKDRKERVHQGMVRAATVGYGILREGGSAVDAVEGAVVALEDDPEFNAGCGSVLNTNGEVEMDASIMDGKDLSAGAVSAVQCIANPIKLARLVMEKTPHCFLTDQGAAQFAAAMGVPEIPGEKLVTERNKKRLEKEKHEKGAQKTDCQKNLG
T1 sequence (Q7L266 168-308): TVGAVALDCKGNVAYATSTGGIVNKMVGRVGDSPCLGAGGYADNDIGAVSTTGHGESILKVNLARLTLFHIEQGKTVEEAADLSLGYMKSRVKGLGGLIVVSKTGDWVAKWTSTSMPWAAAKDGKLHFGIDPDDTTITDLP

[2] = molecular target: T1, hASNase3, cleaved (active) form, alpha and beta chains; assay: asparaginase activity assay; assay type: biochemical; details: turnover by cleaved enzyme only; data not shown
[3] = molecular target: T1, hASNase3, cleaved (active) form, alpha and beta chains; assay: X-ray crystal structure, […] Å; assay type: binding; details: crystal soaked in 3 M glycine, pH 4.9, <1 minute; substrate site (Arg196, Asp199)
[4] = molecular target: T2, hASNase3, uncleaved form (human asparaginase 3; hASRGL1/ALP; CRASH) (Homo sapiens, UniProt Q7L266); assay: autocleavage, SDS-PAGE band quantification; assay type: biochemical; details: accelerates autoproteolysis; 5 mM glycine, pH 7.5, 25 °C, 42 hours
T2 sequence (Q7L266 1-308): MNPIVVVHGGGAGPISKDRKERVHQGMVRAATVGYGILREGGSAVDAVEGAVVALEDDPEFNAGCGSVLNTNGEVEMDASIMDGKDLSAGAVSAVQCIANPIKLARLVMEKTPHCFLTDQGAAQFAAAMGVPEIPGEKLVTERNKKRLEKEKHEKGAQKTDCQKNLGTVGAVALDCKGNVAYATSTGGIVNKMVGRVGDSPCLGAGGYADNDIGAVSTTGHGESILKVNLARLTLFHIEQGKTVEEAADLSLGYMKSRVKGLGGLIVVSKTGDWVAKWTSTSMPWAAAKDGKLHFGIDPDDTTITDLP

[5] = molecular target: T1, hASNase3, cleaved (active) form, alpha and beta chains; assay: asparaginase activity assay; assay type: biochemical; details: 10 or 50 mM glycine; cleaved enzyme
crystal structure = molecular target: the molecule itself; assay: crystal structure
hASNase3 α-chain = molecular target: T3, hASNase3 α-chain (human, UniProt Q7L266 1-167); assay: crystal structure
T3 sequence (looked up): T1 sequence (Q7L266 1-167)

N[C@@H](CC(=O)O)C(=O)O [L-aspartate]
inhibition, concentration-dependent [1]: glycolate, glyoxylate, oxalate, L-aspartate, and serine showed a concentration-dependent effect

NC(=O)C[C@H](N)C(=O)O [asparagine]
asparaginase activity assay [2]: The measured asparaginase activity of hASNase3 was proportional to the amount of cleaved enzyme

NCC(=O)O [glycine]
X-ray crystal structure, 1.91 Å [3]: In this post-cleavage state of hASNase3, glycine bound at the active site | % cleavage at 5 mM [4]: 40% | % reduction of asparaginase activity at 10 or 50 mM [5]: ~ 50%

O=C(O)CO [glycolate]
inhibition, concentration-dependent [1]: glycolate, glyoxylate, oxalate, L-aspartate, and serine showed a concentration-dependent effect

O=CC(=O)O [glyoxylate]
inhibition, concentration-dependent [1]: glycolate, glyoxylate, oxalate, L-aspartate, and serine showed a concentration-dependent effect

O=C(O)C(=O)O [oxalate]
inhibition, concentration-dependent [1]: glycolate, glyoxylate, oxalate, L-aspartate, and serine showed a concentration-dependent effect

N[C@@H](CO)C(=O)O [serine]
inhibition, concentration-dependent [1]: glycolate, glyoxylate, oxalate, L-aspartate, and serine showed a concentration-dependent effect

B1: Human asparaginase 3 (hASNase3), cleaved form (α- and β-chains) (complex)
chain 1: T1 sequence (Q7L266 1-167)
chain 2: T1 sequence (Q7L266 168-308)
binding result (crystal structure): binds

B2: hASNase3 β-chain (domain or fragment, human, UniProt Q7L266 168-308, looked up)
chain: T1 sequence (Q7L266 168-308)
binding result (hASNase3 α-chain): binds
